{
  "source": "patent US20200008825A1",
  "about": "“SUSTAINED INTRATONSILLAR DRUG DELIVERY WITH NEEDLE ARRAY” (SOUTHERN RESEARCH INSTITUTE, priority 2017, published 2020)",
  "tested_on": "CD3 positive T-cells in rabbit tonsils",
  "assay": "percentage of CD3 positive T-cells in rabbit tonsils injected with mometasone versus control (FIG. 11)",
  "type": "in vivo",
  "excerpt": "FIG. 11 includes a graph illustrating a percentage of cluster-of-differentiation-3 (CD3) T-cell co-receptors in a rabbit when treated with mometasone versus a control. Referring now to FIG. 11, a graph is shown illustrating a percentage of cluster-of-differentiation-3 (CD3) T-cell co-receptors in a rabbit when treated with mometasone versus a control. In immunology, the CD3 T-cell co-receptor helps to activate both the cytotoxic T-Cell (CD8+ naive T cells) and also T helper cells (CD4+ naive T cells). CD3 consists of a protein complex and is composed of four distinct chains.",
  "data": [
    {"smiles": "C[C@@H]1C[C@H]2[C@@H]3CCC4=CC(=O)C=C[C@]4(C)[C@@]3(Cl)[C@@H](O)C[C@]2(C)[C@@]1(O)C(=O)CCl", "note": "[mometasone]", "values": [
      {"measurement": "CD3 positive T-cells (percentage)", "value": "significantly lower"}
    ]}
  ]
}
